In one data set the test system is HIV-1 (H9/IIIB strain). The data set is described as follows: Multiple round HIV-1 infection assay (Viking assay) in MT4-GFP cells. The note with it: HIV-1 replication in MT4-GFP cells. The format is cell-based. As for the experimental part: Assessing Antiviral Potency in a Multiple Round HIV-1 Infection Assay (Viking Assay)
The antiviral activity of the tenofovir prodrugs of the Examples herein was assessed in an assay that measures the rate of replication of HIV in cell culture, termed the Viking assay (VIral KINetics in Green cells) and performed as follows. HIV-1 replication was monitored using MT4-gag-GFP clone D3 (hereafter designated MT4-GFP), which are MT-4 cells modified to harbor a GFP reporter gene, the expression of which is dependent on the HIV-1 expressed proteins tat and rev. Productive infection of an MT4-GFP cell with HIV-1 results in GFP expression approximately 24 h post-infection. MT4-GFP cells were maintained at 37° C./5% CO2/90% relative humidity in RPMI 1640 supplemented with 10% fetal bovine serum, 100 U/ml penicillin/streptomycin, and 400 μg/ml G418 to maintain the reporter gene. For infections, MT4-GFP cells were placed in the same medium lacking G418 and infected overnight with HIV-1 (H9/IIIB strain) virus at an approximate multiplicity of infection of 0.01 in the same incubation conditions. […] Compound plates were prepared by dispensing compounds dissolved in DMSO into wells of 384 well poly-D-lysine-coated plates (0.2 μl/well) using an ECHO acoustic dispenser. Each compound was tested in a 10-point serial 3-fold dilution (typical final concentrations: 8.4 μM-0.42 nM). Controls included no inhibitor (DMSO only) and a combination of three antiviral agents (efavirenz, indinavir, an in-house integrase strand transfer inhibitor at final concentrations of 4 μM each). Cells were added (50 μL/well) to compound plates and the infected cells were maintained at 37° C./5% CO2/90% relative humidity.
Infected cells were quantified at two time points, ˜48 h and ˜72 h post-infection, by counting the number of green cells in each well using an Acumen eX3 scanner. The increase in the number of green cells over ˜24 h period gives the reproductive ratio, R0, which is typically 5-15 and has been shown experimentally to be in logarithmic phase (data not shown). Inhibition of R0 is calculated for each well, and IC50s determined by non-linear 4-parameter curve fitting.

Data set [1] can be described thus: Prodrug stability assay in bio-relevant media (FaSSIF with Pancreatin). In kind it is in vitro ADME. Particulars: HPLC peak area of prodrug at 5 h divided by that at 0 h; 0.5 mg/mL Pancreatin in FaSSIF, 37° C. As for the experimental part: Prodrug Stability Assay in Bio-Relevant Media
The following assay was employed to evaluate the stability of the prodrugs in simulated gastrointestinal tract conditions. Preparation of fasted state simulated intestinal fluid (FaSSIF) using Phares SIF Powder was carried out according to protocols from Phare Drug Delivery AG (Baselland, Switzerland). For sample preparation, 10 μL stock solutions (10 mM) of prodrug substance in DMSO was added to 990 μL of 0.5 mg/mL Pancreatin solution (Fisher CAS #8049-47˜6) in FaSSIF. Two samples were prepared for each compound. If the sample was a clear solution, it was directly analyzed by HPLC. If the sample was not clear, the sample was diluted with 100% MeCN, maintained at 37° C. and observed 5 h later. If the sample was clear, HPLC analysis was directly performed. If the sample was still not clear, the sample was diluted with 100% ACN and assayed by HPLC. All the samples were vortexed for 3 min and observed before injection. For the diluted samples, the area is multiplied by a dilution factor when the data is analyzed. The analysis was carried out with an Agilent 1100 series HPLC with autosampler. The column was a Poroshell 120 EC-C18, 4.6×50 mm, 2.7 μm. The flow rate was 1.8 mL/min, and the injection volume was 5 or 10 μL. UV detection was in the range 210-400 nm. The mobile phase consisted of solvent A (water plus 10 mM tetrabutylammonium bromide) and solvent B (acetonitrile) with a gradient of: 90% solvent A at 0 min, changing to 95% solvent B over 6 min, maintaining for 1.5 min, then reverting to 90% solvent A over 1.6 min. The HPLC peak area of the prodrug at 5 h was divided by the HPLC peak area of the prodrug at 0 h, to generate the % claimed parent ratio, which is summarized in Table 2 for gastrointestinal (GI) Tract stability.

[2] abbreviates: Human immunodeficiency virus 1, IIIB, 50% NHS (normal human serum), read-out: Viking, IC50 (50% NHS).
Where [3] appears, read: Human immunodeficiency virus 1, IIIB, head prints 100% NHS (normal human serum), read-out: Viking, IC50 (100% NHS).
Where [4] appears, read: 50% NHS (normal human serum), read-out: Viking, IC50 (50% NHS).
Where [5] appears, read: head prints 100% NHS (normal human serum), read-out: Viking, IC50 (100% NHS).

Where two headings read alike, the source gives them in different places.

As a reminder, the IC50 is the midpoint of a concentration-inhibition curve.

For `CC(C)OC(=O)C(C)(C)NP(=O)(CO[C@H](C)Cn1cnc2c(N)ncnc21)NC(=O)c1ccc(Cl)cc1` (single isomer, unassigned) [Example 1B], the figures for the IC50 in the data set with HIV-1 (H9/IIIB strain) (setting [2]) and with HIV-1 (H9/IIIB strain) (setting [3]) were 24.4 nM and 6.9 nM, respectively. In addition, the “GI Tract stability” value in data set [1] is given as 95.48%.

On to `CCCCCOC(=O)C(C)(C)NP(=O)(CO[C@H](C)Cn1cnc2c(N)ncnc21)NC(=O)c1ccc(Cl)cc1` (single isomer, unassigned) [Example 3A], for which the 50% inhibitory concentration (IC50) in the data set with HIV-1 (H9/IIIB strain) (setting [4]) was determined as 33.2 nM; in the data set on HIV-1 (H9/IIIB strain) (setting [5]), 5.1 nM. For the same compound, the “GI Tract stability” value in data set [1] stood at 99.9%.

`CCCCCOC(=O)C(C)(C)NP(=O)(CO[C@H](C)Cn1cnc2c(N)ncnc21)NC(=O)c1ccc(Cl)cc1` (single isomer, unassigned) [Example 3B]: the IC50 with HIV-1 (H9/IIIB strain) (setting [4]) came out at 10.9 nM; in the data set on HIV-1 (H9/IIIB strain) (setting [5]), 2.3 nM. Moreover, in data set [1], the “GI Tract stability” value is recorded as 75.98%.

`CCCOC(=O)C(C)(C)NP(=O)(CO[C@H](C)Cn1cnc2c(N)ncnc21)NC(=O)c1ccc(Cl)cc1` (single isomer, unassigned) [Example 4B]: the IC50 with HIV-1 (H9/IIIB strain) (setting [4]) worked out at 17.6 nM; in the data set on HIV-1 (H9/IIIB strain) (setting [5]) it was 3.6 nM. Besides, the “GI Tract stability” value in data set [1] was found to be 84.76%.

Turning to `C[C@H](Cn1cnc2c(N)ncnc21)OCP(=O)(NC(=O)c1ccc(Cl)cc1)NC(C)(C)C(=O)OC1CCC1` (single isomer, unassigned) [Example 6B], the IC50 was found to be 13.5 nM in the data set with HIV-1 (H9/IIIB strain) (setting [4]) and 4.1 nM in the data set on HIV-1 (H9/IIIB strain) (setting [5]). The “GI Tract stability” value in data set [1] came to 90.33%.

In the case of `C[C@H](Cn1cnc2c(N)ncnc21)OCP(=O)(NC(=O)c1ccc(Cl)cc1)NC(C)(C)C(=O)OC1CCOCC1` (single isomer, unassigned) [Example 9B], the IC50 came to 74.8 nM in the data set with HIV-1 (H9/IIIB strain) (setting [4]) and 16.9 nM with HIV-1 (H9/IIIB strain) (setting [5]). Moreover, in data set [1], the “GI Tract stability” value came to 99.1%.

In the case of `CC(C)OC(=O)C(C)(C)NP(=O)(CO[C@H](C)Cn1cnc2c(N)ncnc21)NC(=O)c1ccc(F)cc1` (single isomer, unassigned) [Example 10B], the IC50 was 89.8 nM in the data set with HIV-1 (H9/IIIB strain) (setting [4]) and 25.7 nM in the data set on HIV-1 (H9/IIIB strain) (setting [5]). Also, the “GI Tract stability” value in data set [1] is on record as 99.96%.

Take `CCCCCOC(=O)C(C)(C)NP(=O)(CO[C@H](C)Cn1cnc2c(N)ncnc21)NC(=O)c1ccc(F)cc1` (single isomer, unassigned) [Example 11A]: the IC50 with HIV-1 (H9/IIIB strain) (setting [4]) was 15 nM; with HIV-1 (H9/IIIB strain) (setting [3]) it was 4.1 nM. The “GI Tract stability” value in data set [1] amounted to 72.61%.

Consider `CCCCCOC(=O)C(C)(C)NP(=O)(CO[C@H](C)Cn1cnc2c(N)ncnc21)NC(=O)c1cccs1` (single isomer, unassigned) [Example 15A], for which the IC50 turned out to be 34.1 nM with HIV-1 (H9/IIIB strain) (setting [2]) and 8.4 nM with HIV-1 (H9/IIIB strain) (setting [3]). Also, the “GI Tract stability” value in data set [1] is 95.44%.

`CCCCCOC(=O)C(C)(C)NP(=O)(CO[C@H](C)Cn1cnc2c(N)ncnc21)NC(=O)c1ccc(C)cc1` (single isomer, unassigned) [Example 18B]: the IC50 was determined as 10.5 nM in the data set on HIV-1 (H9/IIIB strain) (setting [4]) and 2 nM in the data set with HIV-1 (H9/IIIB strain) (setting [5]). In data set [1], the “GI Tract stability” value came to 92.38%.

Regarding `CC(C)OC(=O)C(C)(C)NP(=O)(CO[C@H](C)Cn1cnc2c(N)ncnc21)NC(=S)c1ccc(Cl)cc1` (stereo partly drawn) [Example 20, isopropyl 2-((((((R)-1-(6-amino-9H-purin-9-yl)propan-2-yl)oxy)methyl)(4-chlorophenylthioamido)phosphoryl)amino)-2-methylpropanoate], the IC50 came out at 494 nM with HIV-1 (H9/IIIB strain) (setting [2]) and 118 nM in the data set with HIV-1 (H9/IIIB strain) (setting [3]).

Values taken from patent US10736908B2, “Antiviral aryl-amide phosphodiamide compounds” (Merck Sharp & Dohme Corp., priority 2016, dated 2020).
